Laboratory results taken from ChEMBL document CHEMBL5465560, “Selectivity Literature for EUbOPEN Chemogenomic Library” (2024).
pIC50: −log10 of the molar value.

Experiments:
[1] = target: Cyclin-dependent kinase 2 (Homo sapiens, UniProt P24941); assay: Selectivity interaction (Kinase panel (KiNativ target engagement assay in Jurkat cells)) EUB0001635a CDK2; assay type: cell-based; settings: at 1 µM
[2] = target: Hepatocyte growth factor receptor (Homo sapiens, UniProt P08581); assay: Selectivity interaction (Kinase panel (enzymatic assay)) EUB0000595a MET
[3] = target: Tyrosine-protein kinase Yes (Homo sapiens) (UniProt P07947); assay: Selectivity interaction (Kinase screening (Nanosyn)) EUB0000604a YES1
[4] = target: Proto-oncogene tyrosine-protein kinase ROS (Homo sapiens) (UniProt P08922); assay: Selectivity interaction (Upstate Kinase Profiler service (Millipore)) EUB0000056c ROS1; settings: at 1 µM
[5] = target: T1, Serine/threonine-protein kinase 36 (Homo sapiens) (UniProt Q9NRP7); assay: Selectivity interaction (KinomeScan (DiscoverX)) EUB0001619a STK36; settings: at 1 µM
T1 sequence (whole entry): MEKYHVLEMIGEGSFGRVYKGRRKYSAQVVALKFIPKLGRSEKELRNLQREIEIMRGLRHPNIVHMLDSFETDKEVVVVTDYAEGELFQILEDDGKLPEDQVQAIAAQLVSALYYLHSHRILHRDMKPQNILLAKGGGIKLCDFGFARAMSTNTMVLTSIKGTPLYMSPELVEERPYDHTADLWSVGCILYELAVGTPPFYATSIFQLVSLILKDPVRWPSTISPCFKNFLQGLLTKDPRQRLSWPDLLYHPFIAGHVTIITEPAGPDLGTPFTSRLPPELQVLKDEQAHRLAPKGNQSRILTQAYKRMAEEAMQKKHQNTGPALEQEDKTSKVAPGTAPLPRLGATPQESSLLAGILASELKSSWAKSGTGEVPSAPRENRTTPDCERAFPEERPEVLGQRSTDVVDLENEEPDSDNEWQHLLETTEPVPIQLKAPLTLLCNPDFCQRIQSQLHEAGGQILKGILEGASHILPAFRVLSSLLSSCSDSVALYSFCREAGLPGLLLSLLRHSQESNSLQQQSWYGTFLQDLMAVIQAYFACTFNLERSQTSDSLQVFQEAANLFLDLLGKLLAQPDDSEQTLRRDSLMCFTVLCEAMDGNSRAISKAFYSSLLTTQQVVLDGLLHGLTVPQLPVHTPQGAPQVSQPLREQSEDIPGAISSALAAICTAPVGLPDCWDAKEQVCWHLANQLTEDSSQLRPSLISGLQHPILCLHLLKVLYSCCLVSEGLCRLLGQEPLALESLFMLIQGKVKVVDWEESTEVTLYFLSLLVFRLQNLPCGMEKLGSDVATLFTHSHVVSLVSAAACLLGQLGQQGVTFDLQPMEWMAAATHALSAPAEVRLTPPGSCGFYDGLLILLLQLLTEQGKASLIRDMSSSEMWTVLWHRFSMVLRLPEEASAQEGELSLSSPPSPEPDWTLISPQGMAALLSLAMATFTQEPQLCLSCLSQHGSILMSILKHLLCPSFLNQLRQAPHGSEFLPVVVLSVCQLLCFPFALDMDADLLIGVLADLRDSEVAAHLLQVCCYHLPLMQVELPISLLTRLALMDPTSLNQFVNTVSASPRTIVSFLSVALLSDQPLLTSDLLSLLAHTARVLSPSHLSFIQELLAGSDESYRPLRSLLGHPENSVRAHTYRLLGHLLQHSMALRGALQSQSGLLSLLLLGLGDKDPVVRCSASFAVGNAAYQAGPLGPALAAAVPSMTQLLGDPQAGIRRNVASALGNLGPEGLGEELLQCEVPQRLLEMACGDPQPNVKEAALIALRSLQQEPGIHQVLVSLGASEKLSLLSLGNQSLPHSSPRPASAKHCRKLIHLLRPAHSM

[6] = target: MAP kinase-interacting serine/threonine-protein kinase 2 (Homo sapiens, UniProt Q9HBH9); assay: Selectivity interaction (Kinase panel (literature)) EUB0001199aCl MKNK2; settings: at 1 µM
[7] = target: T2, cAMP-dependent protein kinase catalytic subunit PRKX (Homo sapiens) (UniProt P51817); assay: Selectivity interaction (SelectScreen profiling (Invitrogen)) EUB0000607a PRKX; settings: at 2 µM
T2 sequence (whole entry): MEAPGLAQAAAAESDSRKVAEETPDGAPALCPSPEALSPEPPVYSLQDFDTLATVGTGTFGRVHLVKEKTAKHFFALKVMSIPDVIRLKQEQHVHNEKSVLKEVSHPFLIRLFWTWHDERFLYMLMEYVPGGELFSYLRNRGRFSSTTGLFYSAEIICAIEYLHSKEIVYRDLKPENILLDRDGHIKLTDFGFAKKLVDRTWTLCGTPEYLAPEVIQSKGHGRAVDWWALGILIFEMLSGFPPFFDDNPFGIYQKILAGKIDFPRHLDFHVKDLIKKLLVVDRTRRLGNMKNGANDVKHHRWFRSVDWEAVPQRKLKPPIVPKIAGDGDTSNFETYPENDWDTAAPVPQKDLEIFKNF

[8] = target: T3, Serine/threonine-protein kinase ICK (Homo sapiens) (UniProt Q9UPZ9); assay: Selectivity interaction (KinomeScan (DiscoverX)) EUB0000607a ICK; settings: at 10 µM
T3 sequence (whole entry): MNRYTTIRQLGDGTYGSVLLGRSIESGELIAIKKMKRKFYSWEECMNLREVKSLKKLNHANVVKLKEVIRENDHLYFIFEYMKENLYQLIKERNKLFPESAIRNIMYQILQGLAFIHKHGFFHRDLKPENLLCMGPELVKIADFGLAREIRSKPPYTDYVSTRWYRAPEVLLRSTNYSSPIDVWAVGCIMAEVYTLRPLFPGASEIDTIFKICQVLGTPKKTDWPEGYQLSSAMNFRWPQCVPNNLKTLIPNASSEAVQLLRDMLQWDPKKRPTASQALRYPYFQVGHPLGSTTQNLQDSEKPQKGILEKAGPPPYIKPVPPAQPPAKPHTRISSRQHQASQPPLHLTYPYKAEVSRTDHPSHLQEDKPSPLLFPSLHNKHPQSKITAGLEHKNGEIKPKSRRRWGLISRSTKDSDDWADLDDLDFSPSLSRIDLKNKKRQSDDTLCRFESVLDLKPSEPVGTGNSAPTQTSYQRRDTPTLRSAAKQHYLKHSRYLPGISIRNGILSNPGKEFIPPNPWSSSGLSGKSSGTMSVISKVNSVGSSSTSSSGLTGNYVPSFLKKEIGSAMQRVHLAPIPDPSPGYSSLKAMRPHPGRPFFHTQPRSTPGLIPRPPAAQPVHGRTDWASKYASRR

[9] = target: Ribosomal protein S6 kinase alpha-1 (Homo sapiens, UniProt Q15418); assay: Selectivity interaction (ActivX KiNativ screen (kinase selectivity in THP-1 cell lysates)) EUB0000639a RPS6KA1; assay type: subcellular; settings: lysate, at 1 µM
[10] = target: Tyrosine-protein kinase Lck (Homo sapiens, UniProt P06239); assay: Selectivity interaction (Ambit KINOMEscan and KiNATiv profiling in Jurkat cells) EUB0000090b LCK; assay type: cell-based; settings: at 1 µM
Sequence of Tyrosine-protein kinase Lck (P06239 2-509 limits assumed): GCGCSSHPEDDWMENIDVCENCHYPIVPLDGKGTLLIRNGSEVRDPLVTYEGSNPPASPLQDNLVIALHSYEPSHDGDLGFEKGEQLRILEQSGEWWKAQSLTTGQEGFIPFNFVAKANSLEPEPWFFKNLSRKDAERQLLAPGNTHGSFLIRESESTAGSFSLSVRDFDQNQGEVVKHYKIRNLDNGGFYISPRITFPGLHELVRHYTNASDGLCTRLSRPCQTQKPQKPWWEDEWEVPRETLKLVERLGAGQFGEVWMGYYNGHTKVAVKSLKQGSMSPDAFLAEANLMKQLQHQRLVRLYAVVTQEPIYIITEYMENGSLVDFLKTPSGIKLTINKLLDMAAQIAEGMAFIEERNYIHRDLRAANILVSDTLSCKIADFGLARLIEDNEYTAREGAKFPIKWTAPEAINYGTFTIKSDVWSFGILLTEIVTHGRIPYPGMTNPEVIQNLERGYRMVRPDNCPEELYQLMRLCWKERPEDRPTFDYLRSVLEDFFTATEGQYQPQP

Sequence of MAP kinase-interacting serine/threonine-protein kinase 2 (Q9HBH9 whole entry, looked up): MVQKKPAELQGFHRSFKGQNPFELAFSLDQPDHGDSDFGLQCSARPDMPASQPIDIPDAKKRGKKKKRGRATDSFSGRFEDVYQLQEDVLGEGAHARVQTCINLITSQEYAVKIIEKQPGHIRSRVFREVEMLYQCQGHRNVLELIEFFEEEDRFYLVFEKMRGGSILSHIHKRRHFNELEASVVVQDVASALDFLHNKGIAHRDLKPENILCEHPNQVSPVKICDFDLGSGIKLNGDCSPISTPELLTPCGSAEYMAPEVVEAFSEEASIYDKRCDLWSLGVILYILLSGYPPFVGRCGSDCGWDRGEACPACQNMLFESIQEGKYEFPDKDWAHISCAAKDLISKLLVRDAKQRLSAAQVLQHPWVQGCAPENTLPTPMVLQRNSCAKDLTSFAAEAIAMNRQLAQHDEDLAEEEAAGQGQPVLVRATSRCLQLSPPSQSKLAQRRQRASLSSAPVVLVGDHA
Sequence of Tyrosine-protein kinase Yes (Homo sapiens) (P07947 2-543 limits assumed): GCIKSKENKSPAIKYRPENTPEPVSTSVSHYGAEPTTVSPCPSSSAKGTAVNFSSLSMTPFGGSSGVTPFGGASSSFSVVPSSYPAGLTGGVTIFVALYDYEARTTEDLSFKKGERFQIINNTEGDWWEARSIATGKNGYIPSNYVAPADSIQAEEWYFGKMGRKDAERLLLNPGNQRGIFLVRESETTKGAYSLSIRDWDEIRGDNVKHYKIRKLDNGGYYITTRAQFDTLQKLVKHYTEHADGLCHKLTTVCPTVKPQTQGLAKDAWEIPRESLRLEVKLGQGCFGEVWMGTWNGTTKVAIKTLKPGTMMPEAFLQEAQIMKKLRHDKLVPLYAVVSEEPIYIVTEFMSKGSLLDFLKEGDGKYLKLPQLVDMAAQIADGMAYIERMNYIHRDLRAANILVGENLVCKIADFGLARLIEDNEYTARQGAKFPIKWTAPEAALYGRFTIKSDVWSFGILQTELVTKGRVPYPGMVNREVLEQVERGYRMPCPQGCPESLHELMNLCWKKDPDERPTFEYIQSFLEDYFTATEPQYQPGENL
Sequence of Ribosomal protein S6 kinase alpha-1 (Q15418 whole entry): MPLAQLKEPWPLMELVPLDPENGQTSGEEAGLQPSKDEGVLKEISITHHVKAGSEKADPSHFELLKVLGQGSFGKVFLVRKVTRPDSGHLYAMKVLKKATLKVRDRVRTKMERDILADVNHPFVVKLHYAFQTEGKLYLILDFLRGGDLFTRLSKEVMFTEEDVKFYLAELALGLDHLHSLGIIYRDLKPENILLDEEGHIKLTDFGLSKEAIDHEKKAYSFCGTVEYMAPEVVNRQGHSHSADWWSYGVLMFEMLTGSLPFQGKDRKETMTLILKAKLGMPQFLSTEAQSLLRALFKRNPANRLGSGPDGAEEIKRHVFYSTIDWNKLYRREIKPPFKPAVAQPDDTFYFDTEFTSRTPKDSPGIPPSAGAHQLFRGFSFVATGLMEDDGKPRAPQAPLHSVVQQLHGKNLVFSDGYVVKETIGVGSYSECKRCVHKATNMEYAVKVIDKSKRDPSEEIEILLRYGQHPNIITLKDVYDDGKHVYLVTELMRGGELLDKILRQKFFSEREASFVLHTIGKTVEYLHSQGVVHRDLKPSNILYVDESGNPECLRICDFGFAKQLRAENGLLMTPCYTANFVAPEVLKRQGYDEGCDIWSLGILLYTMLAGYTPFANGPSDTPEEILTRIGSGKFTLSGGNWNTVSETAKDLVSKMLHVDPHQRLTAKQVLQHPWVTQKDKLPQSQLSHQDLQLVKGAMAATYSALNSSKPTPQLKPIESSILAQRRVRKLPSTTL
Sequence of Hepatocyte growth factor receptor (P08581 whole entry): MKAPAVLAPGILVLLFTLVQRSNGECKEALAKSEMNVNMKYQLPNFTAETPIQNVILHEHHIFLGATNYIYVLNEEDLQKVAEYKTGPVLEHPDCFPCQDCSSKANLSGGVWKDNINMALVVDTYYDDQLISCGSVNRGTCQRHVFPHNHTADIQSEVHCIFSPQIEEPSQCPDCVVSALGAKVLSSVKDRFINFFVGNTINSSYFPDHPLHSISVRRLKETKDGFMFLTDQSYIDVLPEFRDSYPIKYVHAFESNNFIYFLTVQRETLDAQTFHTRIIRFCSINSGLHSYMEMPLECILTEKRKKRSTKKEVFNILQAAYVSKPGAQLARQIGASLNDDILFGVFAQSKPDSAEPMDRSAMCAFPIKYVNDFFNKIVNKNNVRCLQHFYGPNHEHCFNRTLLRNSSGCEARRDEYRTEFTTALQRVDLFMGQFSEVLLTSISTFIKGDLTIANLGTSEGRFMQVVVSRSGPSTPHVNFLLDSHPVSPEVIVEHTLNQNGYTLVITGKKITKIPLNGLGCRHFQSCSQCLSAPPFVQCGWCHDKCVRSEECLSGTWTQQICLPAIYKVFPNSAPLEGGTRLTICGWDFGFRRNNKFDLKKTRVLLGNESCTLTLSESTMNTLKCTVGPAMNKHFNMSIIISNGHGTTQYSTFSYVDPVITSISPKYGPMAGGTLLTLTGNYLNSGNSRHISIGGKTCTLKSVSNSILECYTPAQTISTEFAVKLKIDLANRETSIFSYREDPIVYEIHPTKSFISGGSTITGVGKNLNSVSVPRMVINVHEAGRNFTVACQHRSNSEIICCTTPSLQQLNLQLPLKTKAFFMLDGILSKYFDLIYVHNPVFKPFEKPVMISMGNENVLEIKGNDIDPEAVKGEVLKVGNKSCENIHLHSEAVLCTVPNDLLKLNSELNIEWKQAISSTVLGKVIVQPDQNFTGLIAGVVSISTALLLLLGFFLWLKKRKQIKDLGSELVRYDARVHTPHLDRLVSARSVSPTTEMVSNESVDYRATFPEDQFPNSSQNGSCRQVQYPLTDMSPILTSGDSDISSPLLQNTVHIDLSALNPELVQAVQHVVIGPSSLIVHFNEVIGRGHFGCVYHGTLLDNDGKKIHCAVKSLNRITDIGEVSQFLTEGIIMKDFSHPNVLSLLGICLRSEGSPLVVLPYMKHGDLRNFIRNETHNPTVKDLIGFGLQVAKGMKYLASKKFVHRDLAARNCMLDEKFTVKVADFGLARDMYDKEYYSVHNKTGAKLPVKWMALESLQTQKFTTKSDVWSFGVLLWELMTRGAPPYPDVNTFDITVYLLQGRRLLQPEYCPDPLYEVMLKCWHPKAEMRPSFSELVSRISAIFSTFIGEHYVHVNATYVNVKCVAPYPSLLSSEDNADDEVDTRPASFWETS

`C=CC(=O)Nc1ccc(C(=O)Nc2[nH]nc3c2CN(C(=O)N[C@H](CN(C)C)c2ccccc2)C3(C)C)cc1` gave a % of engagement ([1]; Selectivity number of off-targets 0.0, Selectivity number of targets 233.0, Source Knowledge https://www.sciencedirect.com/science/article/pii/S2451945619300674?via%3Dihub) of -25.3% and a % of engagement [1] of -16.4%.

For `COCC(=O)NC/C=C/c1ccc2ncnc(Nc3ccc(Oc4ccc(C)nc4)c(C)c3)c2c1` [CP-724714], the pIC50 [2] was < 5.00.

Work on `Cc1cnc(Nc2ccc(F)cc2Cl)nc1-c1c[nH]c(C(=O)N[C@H](CO)c2cccc(Cl)c2)c1` yielded a % of inhibition [3] of 5%.

Work on `Cc1ccc(-c2ccc3c(ccc4sc5c(c43)NC[C@@H](C)NC5=O)n2)cn1` yielded a % of inhibition [4] of -15%.

Work on `N#Cc1cccc(-c2c[nH]c3ncnc(N4CCOCC4)c23)c1` yielded a % of control [5] of 100%.

`CN1Cc2nccc(-c3cn(C)nc3-c3ccc(F)cc3)c2C1=O` gave a % of inhibition [6] of 9%.

With `CNC(=O)Nc1ccc(-c2nc(N3CC4CCC(C3)O4)c3cnn(C4CCC5(CC4)OCCO5)c3n2)cc1` the % of inhibition [7] was 5% and the % of control [8] was 87%.

`CC[C@@H]1[C@H](F)C(=O)N[C@@H]1COc1nccc2cc(C(N)=O)c(OC)cc12` [ZIMLOVISERTIB] showed a % of inhibition [9] of 8.6%.

With `CN(C)C/C=C/C(=O)Nc1ccc(C(=O)N2CCCC(Nc3ncc(Cl)c(-c4c[nH]c5ccccc45)n3)C2)cc1` (stereo unspecified) the % of control [10] was 84%.
